Experiments:
[1] = system: Mus musculus; assay: Analgesic activity in ig dosed mouse by hot plate test; format: functional; conditions: po
[2] = Toxicity in ig dosed Kunming mouse; format: organism-based; conditions: in vivo, po
[3] = Therapeutic index, ratio of LD50 in Kunming mouse to ED50 for analgesic activity in mouse; format: organism-based; conditions: in vivo, read-out: Ratio LD50/ED50

## CCN1C[C@]2(COC)[C@H](O)C[C@H](OC)[C@@]34[C@@H]5C[C@@]6(O)[C@H](OC(=O)c7ccccc7)[C@@H]5[C@@](OC(C)=O)([C@@H]([C@H](OC)[C@H]23)[C@@H]14)[C@@H](O)[C@@H]6OC [ACONITINE]
[1]
  ED50: 0.08 mg/kg
[2]
  LD50: 0.16 mg/kg
[3]
  selectivity ratio: 2

## CCN1C[C@]2(COC)CC[C@H](OC)[C@@]34C1O[C@H](C=C1[C@H]5[C@@H](O)[C@H](C[C@H]53)[C@@H](OC)[C@H]1O)[C@H]24 [GUIWULINE]
[1]
  ED50: 15 mg/kg
[2]
  LD50: 500 mg/kg
[3]
  selectivity ratio: 33

Source: ChEMBL document CHEMBL2040812, “A novel franchetine type norditerpenoid isolated from the roots of Aconitum carmichaeli Debx. with potential analgesic activity and less toxicity” (Bioorg Med Chem Lett, 2012)
